From patent US11076597B2, “High stress resistant plant growth regulator and preparation method and use thereof” (SHANGHAI INSTITUTES FOR BIOLOGICAL SCIENCES, CHINESE …, priority 2015, dated 2021)
pEC50: −log10 of the molar value. “Also recorded” adds a separate entry of the source. Where two headings read alike, the source gives them in different places.

Key:
[1] = test system: Arabidopsis thaliana Col-0 ecotype; experiment: Soil drought experiment, Arabidopsis; assay type: in vivo; details: for growth after drought: 5 μM spray, two weeks after the drought, FIG. 12; for survival/growth after drought: 5 μM sprayed once every week, twice in total, four weeks of drought, FIG. 7
Protocol: Seeds of Arabidopsis Col-0 ecotype were sterilized with NaClO and then sown on ½ MS solid medium at 4° C. for 3 days of vernalization. After 6 days of growing, the well-grown seedlings having uniform size were selected and transferred into 8×7×6 cm^3 pots. Each pot was filled with the same weight of soil and same number of plants (six plants) was transferred to reduce experimental error. All the pots were subjected to a short-day culture at 22° C. After two weeks, watering was stopped for drought treatment. A solution containing 0.05% Tween-20 and 5 μM 0224/0706/0715/0428 or 0.05% Tween-20 and 0.05% DMSO (control) was sprayed onto the leaf surface once per week with a spray amount of 2 ml solution/pot. The position of the flowerpot was changed every day during the process of drought to reduce the error caused by environmental factors. During the whole drought period, the solution was sprayed twice in total and photos were recorded after four weeks.
Arabidopsis thaliana Col-0 ecotype that had been growing in the soil for two weeks was stopped watering, the leaf was sprayed with a solution containing 5 μM compound 0224/0706/0715 or 0.05% DMSO (control) once every week during the drought, with a spray amount of 2 ml solution/pot, twice in total and a 0.05% (v/v) surfactant Tween-20 was added to the solution to enhance the penetrating effect of the spray agent on the leaf epidermis. […] The same method was performed for drought treatment and (+)-ABA or 0428-treated Arabidopsis was photographed two weeks after the drought.

[2] = target: T1, PYL1 receptor-HAB1 protein phosphatase complex (Arabidopsis thaliana, UniProt Q8VZS8); experiment: AlphaScreen assay: promotion of PYL1 receptor binding to PP2C protein phosphatase HAB1
T1 construct: made in house; host or cells: E. coli BL21 (DE3)
T1 sequence (Q8VZS8 36-211): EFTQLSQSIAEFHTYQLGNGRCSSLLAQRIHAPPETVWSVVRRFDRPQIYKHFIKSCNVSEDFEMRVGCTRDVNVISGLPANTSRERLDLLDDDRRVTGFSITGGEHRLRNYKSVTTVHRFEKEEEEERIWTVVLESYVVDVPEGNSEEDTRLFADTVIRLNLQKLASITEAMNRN
T1 sequence (Q9CAJ0 172-511 partner limits assumed): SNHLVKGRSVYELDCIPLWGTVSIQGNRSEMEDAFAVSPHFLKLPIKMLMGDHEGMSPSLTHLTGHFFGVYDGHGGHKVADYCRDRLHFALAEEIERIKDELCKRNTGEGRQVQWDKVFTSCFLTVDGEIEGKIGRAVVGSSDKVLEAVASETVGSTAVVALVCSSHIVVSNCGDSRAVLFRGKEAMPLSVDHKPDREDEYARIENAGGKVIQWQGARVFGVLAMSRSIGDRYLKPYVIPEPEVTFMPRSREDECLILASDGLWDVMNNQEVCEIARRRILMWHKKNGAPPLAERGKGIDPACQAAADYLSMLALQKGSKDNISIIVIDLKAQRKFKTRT
From the text: The construction method of recombinant plasmids for the Arabidopsis thaliana genes PYL1 (amino acid sequence 36-211), PYL2 (amino acid sequence 14-188) with dual tags of 6×His and SUMO sequence and the Arabidopsis thaliana gene HAB1 (amino acid sequence 172-511) with the Biotin tag sequence is described in detail in “A gate-latch-lock mechanism for hormone signaling by abscisic acid receptors” (Nature, Vol 462, 2009). The construction method of recombinant plasmids for PYR1 and PYL7 (whole gene coding sequence) and Soybean GmPYL6 and rice OsPYL2 with dual tags of 6×His and SUMO sequence is the same as that for Arabidopsis PYL2.
The above recombinant plasmid is transformed into competent cell of E. coli BL21 (DE3) (purchased from NEB company), and inoculated into 200 ml of LB liquid medium containing Amp resistance (purchased from OXOID company) and cultured overnight at 37° C. at 200 rpm; and inoculated into 2 L of LB liquid medium containing Amp resistance at a ratio of 1:50-1:100 for an extended culture, and cultured at 37° C., 200 rpm for 3-4 hours, and at a low temperature of 16° C. until OD600 is about 0.8-1.0. Recombinant plasmids for PYR1/PYL1/PYL2/PYL7/GmPYL6/OsPYL2 with dual tags of 6×His and SUMO sequence were induced overnight with 100 μM of IPTG while HAB1 recombinant plasmid with the Biotin tag sequence was induced simultaneously with 100 μM of IPTG and 40 μM of biotin.
After 16 hours of induction, the bacterial solution was centrifuged at 4000 rpm for 20 minutes at 4° C. in a low-speed high-capacity centrifuge, and the bacteria cells were collected. Bacteria cells were resuspended in 50 ml of extraction buffer (containing 20 mM Tris, pH 8.0, 200 mM NaCl and 10% (v/v) glycerol) for per 2 L of bacterial solution and then subjected to pressure-breaking at […] and 4° C. for 3-5 times. The broken cells were subjected to ultracentrifugation, centrifuged at 16000 rpm for 30 minutes, and this process was repeated twice. The supernatant was collected and subjected to an affinity chromatography column. […]

[3] = FIG. 2b, 6×His-SUMO-tagged PYL1 (aa 36-211), Biotin-tagged HAB1 (aa 172-511), 100 nM each, pH 7.4, 1.5 h room temperature, read-out: EC50

Row | pEC50 [2, 3] | SMILES | growth after drought [1] | survival/growth after drought [1] | other results
1 |  | CC1=CC(=O)CC(C)(C)[C@@]1(O)/C=C/C(C)=C\C(=O)O [ABA, Abscisic Acid, reference compound] | had no difference from that of plants in the DMSO-sprayed control group |  | pEC50 [2]: 5.92
2 | 6.83 | CCCN1C(=O)OC(C)c2cc(NS(=O)(=O)Cc3c(F)c(F)c(C)c(F)c3F)ccc21 (centres unmarked) [Compound 0224] |  | still grows normally; also recorded: still survived | 
3 | 6.78 | CCCN1C(=O)OC(C)(C)c2cc(NS(=O)(=O)Cc3c(F)c(F)c(C)c(F)c3F)ccc21 [Compound 0304] |  |  | 
4 |  | CCCN1C(=O)OCc2cc(NS(=O)(=O)Cc3c(F)c(F)c(C)c(F)c3F)ccc21 [Compound 0428] | exhibits a better growth condition than that in the control group and that sprayed with ABA; also recorded: significantly better than that of plants in DMSO-sprayed control group and plants sprayed with 5 μM (+)-ABA |  | 
5 |  | CCN1C(=O)OC(C)c2cc(NS(=O)(=O)Cc3c(F)c(F)c(C)c(F)c3F)ccc21 (centres unmarked) [Compound 0706] |  | still grows normally; also recorded: still survived | 
6 |  | Cc1c(F)c(F)c(CS(=O)(=O)Nc2ccc3c(c2)C(C)OC(=O)N3CCCF)c(F)c1F (centres unmarked) [Compound 0715] |  | still grows normally; also recorded: still survived | 
